{"source": "the Deep4Chem optical property database", "experiment": "solvent given as SMILES", "data": [{"smiles": "Cc1nc2c(ccc3ccccc32)oc1=O", "values": [{"measurement": "emission maximum", "setting": "in c1ccccc1", "result": 424, "unit": "nm"}]}, {"smiles": "Cc1ccc(-c2c3nc(c(-c4ccc(C)cc4)c4ccc([nH]4)c(-c4ccc(C)cc4)c4nc(c(-c5ccc(C)cc5)c5ccc2[nH]5)C=C4N2CCOCC2)C=C3)cc1", "values": [{"measurement": "emission maximum", "setting": "in CS(C)=O", "result": 666, "unit": "nm"}]}, {"smiles": "COc1c2ccccc2c(OC)c2c1c1c(C)ccc(OC)c1n2C", "values": [{"measurement": "emission maximum", "setting": "in C1CCCCC1", "result": 427, "unit": "nm"}, {"measurement": "emission maximum", "setting": "in CC#N", "result": 445, "unit": "nm"}, {"measurement": "emission maximum", "setting": "in CO", "result": 440, "unit": "nm"}, {"measurement": "emission maximum", "setting": "in ClCCl", "result": 443, "unit": "nm"}]}, {"smiles": "CCCCCCCCc1ccc(-c2ccc(-c3cc(-c4ccc(-c5ccc(CCCCCCCC)s5)c5nsnc45)c4ccc5c(-c6ccc(-c7ccc(CCCCCCCC)s7)c7nsnc67)cc(-c6ccc(-c7ccc(CCCCCCCC)s7)c7nsnc67)c6ccc3c4c65)c3nsnc23)s1", "values": [{"measurement": "emission maximum", "setting": "in ClC(Cl)Cl", "result": 541, "unit": "nm"}]}, {"smiles": "CCOC(=O)c1c(-c2c(Cl)c3ccccc3oc2=O)nn(-c2cccc(Cl)c2)c1C(=O)OCC", "values": [{"measurement": "emission maximum", "setting": "in ClCCl", "result": 409, "unit": "nm"}]}, {"smiles": "CCN(CC)c1ccc2c(-c3ccccc3C(=O)O)c3c([o+]c2c1)/C(=C/c1ccc2c(c1)c1ccccc1n2CC)CCC3", "values": [{"measurement": "emission maximum", "setting": "in ClCCl", "result": 712, "unit": "nm"}]}, {"smiles": "CC1(C)CC(/C=C/c2ccc(-n3ccnc3)cc2)=CC(=C(C#N)C#N)C1", "values": [{"measurement": "emission maximum", "setting": "in C1CCOC1", "result": 524, "unit": "nm"}, {"measurement": "emission maximum", "setting": "in CC#N", "result": 526, "unit": "nm"}, {"measurement": "emission maximum", "setting": "in CCO", "result": 520, "unit": "nm"}, {"measurement": "emission maximum", "setting": "in CCOC(C)=O", "result": 518, "unit": "nm"}, {"measurement": "emission maximum", "setting": "in ClCCl", "result": 504, "unit": "nm"}, {"measurement": "emission maximum", "setting": "in c1ccccc1", "result": 511, "unit": "nm"}]}, {"smiles": "N#Cc1cc(N2c3ccccc3Oc3ccccc32)c(N2c3ccccc3Oc3ccccc32)cc1C#N", "values": [{"measurement": "emission maximum", "setting": "in c1ccc2c(c1)c1ccccc1n2-c1ccc(-c2ccc(-n3c4ccccc4c4ccccc43)cc2)cc1", "result": 612, "unit": "nm"}]}, {"smiles": "CC1=C(c2ccc(N(C)C)cc2)C(C)=[N+]2C1=C(c1c(-c3ccccn3)nc3ccccn13)c1c(C)cc(C)n1[B-]2(F)F", "values": [{"measurement": "emission maximum", "setting": "in ClCCl", "result": 524, "unit": "nm"}]}, {"smiles": "c1ccc(-c2nc(-c3ccccc3)nc(-c3ccc(-n4c5ccccc5c5cc(-n6c7ccccc7c7ccccc76)ccc54)c4c5ccccc5n(-c5ccccc5)c34)n2)cc1", "values": [{"measurement": "emission maximum", "setting": "in C1CCOC1", "result": 496.59, "unit": "nm"}, {"measurement": "emission maximum", "setting": "in Cc1ccccc1", "result": 429, "unit": "nm"}, {"measurement": "emission maximum", "setting": "in ClCCl", "result": 531.36, "unit": "nm"}]}, {"smiles": "CCOC(=O)c1ccc(C2CC(c3cccc4ccccc34)=NN2c2ccc(OC)cc2)cc1", "note": "(configuration not stated)", "values": [{"measurement": "emission maximum", "setting": "in ClCCl", "result": 505, "unit": "nm"}]}, {"smiles": "CCCCCCOc1cc(C=C2C(=O)c3ccccc3C2=O)c(OCCCCCC)cc1C=C1C(=O)c2ccccc2C1=O", "values": [{"measurement": "emission maximum", "setting": "in ClCCl", "result": 622, "unit": "nm"}]}, {"smiles": "CCN(CC)c1cc2oc3cc(O)c(F)cc3c(=O)c2cc1F", "values": [{"measurement": "emission maximum", "setting": "in CCO", "result": 438, "unit": "nm"}]}, {"smiles": "CCCCCCN1C(=O)c2cccc3cc(/N=C\\c4ccc(N(c5ccccc5)c5ccccc5)cc4)cc(c23)C1=O", "values": [{"measurement": "emission maximum", "setting": "in ClC(Cl)Cl", "result": 565, "unit": "nm"}]}, {"smiles": "CN1C(=CC2=C([O-])C(=Cc3sc4ccccc4[n+]3C)C2=C(C#N)C#N)C(C)(C)c2ccccc21", "values": [{"measurement": "emission maximum", "setting": "in ClC(Cl)Cl", "result": 708, "unit": "nm"}]}, {"smiles": "Cn1cccc1-c1ccc(C#N)cc1", "values": [{"measurement": "emission maximum", "setting": "in C1CCOC1", "result": 383, "unit": "nm"}, {"measurement": "emission maximum", "setting": "in CC#N", "result": 407, "unit": "nm"}, {"measurement": "emission maximum", "setting": "in CCCCCC", "result": 357, "unit": "nm"}, {"measurement": "emission maximum", "setting": "in CCCCOCCCC", "result": 367, "unit": "nm"}, {"measurement": "emission maximum", "setting": "in CCOCC", "result": 371, "unit": "nm"}]}, {"smiles": "Cc1cccc2[n+]1[B-](c1ccccc1)(c1ccccc1)c1cccc3c4c5c(cccc5c-2c13)[B-](c1ccccc1)(c1ccccc1)[n+]1c(C)cccc1-4", "values": [{"measurement": "emission maximum", "setting": "in ClCCl", "result": 611, "unit": "nm"}]}, {"smiles": "c1ccc(N(c2ccccc2)c2ccc(-c3ccc(-c4ccc(N(c5ccccc5)c5ccccc5)cc4)c4nsnc34)cc2)cc1", "values": [{"measurement": "emission maximum", "setting": "in ClCCl", "result": 639, "unit": "nm"}]}, {"smiles": "COc1ccc(OC)c(C2=C3C=CC(=[N+](C)C)C=C3[Si](C)(C)c3cc(N(C)C)ccc32)c1", "values": [{"measurement": "emission maximum", "setting": "in O", "result": 665, "unit": "nm"}]}, {"smiles": "Fc1ccc(C2=NC(c3ccccc3)C(N(c3ccccc3)c3ccccc3)S2)cc1", "note": "(configuration not stated)", "values": [{"measurement": "emission maximum", "setting": "in ClC(Cl)Cl", "result": 461, "unit": "nm"}]}, {"smiles": "CC(C)(C)c1cc2ccc3cc(C(C)(C)C)cc4c3c2c(c1)c(=O)n1c4nc2c3cc(C(C)(C)C)cc4ccc5cc(C(C)(C)C)cc(c5c43)c21", "values": [{"measurement": "emission maximum", "setting": "in C1CCOC1", "result": 523, "unit": "nm"}, {"measurement": "emission maximum", "setting": "in CC#N", "result": 551, "unit": "nm"}, {"measurement": "emission maximum", "setting": "in CC(C)=O", "result": 544, "unit": "nm"}, {"measurement": "emission maximum", "setting": "in CCCCCC", "result": 495, "unit": "nm"}, {"measurement": "emission maximum", "setting": "in CCOC(C)=O", "result": 524, "unit": "nm"}, {"measurement": "emission maximum", "setting": "in CS(C)=O", "result": 553, "unit": "nm"}, {"measurement": "emission maximum", "setting": "in Cc1ccc(C)cc1", "result": 521, "unit": "nm"}, {"measurement": "emission maximum", "setting": "in ClC(Cl)(Cl)Cl", "result": 520, "unit": "nm"}, {"measurement": "emission maximum", "setting": "in ClC(Cl)Cl", "result": 551, "unit": "nm"}, {"measurement": "emission maximum", "setting": "in c1ccccc1", "result": 524, "unit": "nm"}]}, {"smiles": "Cc1cc(-c2nc(-c3ccccc3)nc(-c3ccccc3)n2)c(C)cc1-c1ccc2c(c1)C1(c3ccccc3-c3ccccc31)c1ccccc1N2c1ccccc1", "values": [{"measurement": "emission maximum", "setting": "in c1cc(-c2cccc(-n3c4ccccc4c4ccccc43)c2)cc(-n2c3ccccc3c3ccccc32)c1", "result": 446, "unit": "nm"}]}, {"smiles": "CC(C)c1cc(C(C)C)c(B2c3ccccc3Oc3cc(N4c5ccccc5C5(c6ccccc6Oc6ccccc65)c5ccccc54)ccc32)c(C(C)C)c1", "values": [{"measurement": "emission maximum", "setting": "in Cc1ccccc1", "result": 451, "unit": "nm"}]}, {"smiles": "O=c1c2cccc3cccc(c32)c2nc3c4ccccc4c4ccccc4c3n12", "values": [{"measurement": "emission maximum", "setting": "in ClCCl", "result": 589, "unit": "nm"}]}]}
